Test results as given in patent publication US8772504B2, “Substituted benzoxazole, benzimidazole, oxazolopyridine and imidazopyridine derivatives as gamma secretase modulators” (Janssen Pharmaceuticals, Inc., priority 2009, dated 2014).

Legend:
Aβ42 [1] = assay: In vivo efficacy Method 1: brain soluble Aβ42 by ELISA; parameters: species or system mouse; conditions: Table 4a, single oral dose, overnight fasted animals, sacrificed after 4 h, soluble fraction of brain homogenates
Outline: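 Overnight-fasted rodents or APP transgenic mice given a single oral dose in 20% Captisol or 20% hydroxypropyl β-cyclodextrin and sacrificed after 4 h. Right-hemisphere homogenate high-speed supernatant used: neutralized portion for Aβtotal, Oasis HLB-purified and concentrated eluate for Aβ42, both quantified by ELISA.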

Aβ42 [2] = assay: Screening for γ-secretase-modulating activity, Method 1: Aβ42 sandwich ELISA on SKNBE2 cell media; assay type: cell-based; conditions: SKNBE2 cells carrying APP 695 wild type
Outline: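 SKNBE2 cells expressing wild-type APP695 were treated with compound for 18 h in Ultraculture/1% glutamine. Secreted Aβ42 was quantified by sandwich ELISA (C-terminal capture, biotinylated 3D6, TMB, 450 nm), with WST-1 used as a toxicity check. IC50 was derived from 4-parameter fits of % inhibition or % of untreated control.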

[3] = Homo sapiens, Table 3a, 18 hours, XLfit, top/bottom fixed to 100 and 0, hill slope 1
[4] = Homo sapiens, Table 3b, non-linear regression of % of control, averaged IC50 values
[5] = Table 3a, 18 hours, XLfit, top/bottom fixed to 100 and 0, hill slope 1
[6] = Table 3b, non-linear regression of % of control, averaged IC50 values

| SMILES | Aβ42 (% Ctrl) _Mean (Aβ42 [1]) | IC50 (Aβ42 [2]; [3]) | IC50 (Aβ42 [2]; [4]) | IC50 (Aβ42 [2]; [5]) | IC50 (Aβ42 [2]; [6]) |
| --- | --- | --- | --- | --- | --- |
| COc1cc(Nc2cccc3c2nc(-c2ccc(F)cc2)n3C)ccc1-n1cnc(C)c1 [Compound 1] | 57 % Ctrl | 22 nM | 21 nM | – | – |
| COc1cc(Nc2cccc3c2nc(-c2ccc(F)cc2)n3C)ccc1-n1cnc(C)n1 [Compound 4] | 64 % Ctrl | 23 nM | 22 nM | – | – |
| COc1cc(Nc2nccc3c2nc(-c2ccc(F)cc2)n3C)ccc1-n1cnc(C)c1 [Compound 8] | 46 % Ctrl | 22 nM | 22 nM | – | – |
| COc1nc(Nc2cccc3c2nc(-c2ccc(F)cc2)n3C)ccc1-n1cnc(C)c1 [Compound 15] | 31 % Ctrl | 6 nM | 8 nM | – | – |
| CCn1c(CC2CC2)nc2c(Nc3ccc(-n4cnc(C)c4)c(OC)c3)cccc21 [Compound 36] | 79 % Ctrl | – | – | 31 nM | 28 nM |
| COc1cc(Nc2cccc3c2nc(Oc2ccccc2)n3C)ccc1-n1cnc(C)c1 [Compound 61] | 89 % Ctrl | – | – | 63 nM | 59 nM |
| Cc1cn(-c2ccc(Nc3cccc4c3nc(-c3ccc(F)cc3)n4C)cc2F)cn1 [Compound 67] | 71 % Ctrl | – | – | 12 nM | 8 nM |
| Cc1ncn(-c2ccc(Nc3cccc4c3nc(-c3ccc(F)cc3)n4C(C)C)cc2)n1.Cl.Cl [Compound 73] | 87 % Ctrl | – | – | 96 nM | 89 nM |
| COc1cc(Nc2cccc3c2nc(-c2ccc(F)cc2)n3C(C)C)ccc1-n1cnc(C)n1.Cl.Cl [Compound 75] | 67 % Ctrl | – | – | 19 nM | 19 nM |
| Cc1ncn(-c2ccc(Nc3cccc4c3nc(-c3ccc(F)cc3)n4C(C)C)cn2)n1 [Compound 76] | 86 % Ctrl | – | – | 48 nM | 46 nM |
| COc1cc(Nc2nccc3c2nc(-c2ccc(F)cc2)n3C)ccc1-n1cnc(C)n1 [Compound 92] | 60 % Ctrl | – | – | 129 nM | 129 nM |
| COc1cc(Nc2cc(C(C)C)nc3c2nc(-c2ccc(F)cc2)n3C)ccc1-n1cnc(C)n1 [Compound 110] | – | 4 nM | 18 nM | – | – |
| COc1cc(-c2nc3c(Nc4ccc(-n5cnc(C)n5)c(OC)c4)nccc3n2C)ccc1Cl [Compound 114] | – | 10 nM | 54 nM | – | – |
| COc1nc(Nc2cc(F)cc3c2nc(-c2ccc(F)cc2)n3C)ccc1-n1cnc(C)c1 [Compound 115] | 97 % Ctrl | – | – | 2 nM | – |
| COc1cc(Nc2nccc3c2nc(-c2ccccc2C(F)(F)F)n3C)ccc1-n1cnc(C)n1 [Compound 130] | 75 % Ctrl | – | – | – | 69 nM |
| COc1cc(Nc2nc(C)cc3c2nc(-c2ccc(F)cc2)n3C)ccc1-n1cnc(C)n1 [Compound 164] | 72 % Ctrl | – | – | – | 32 nM |
